According to paper PMC10831936 (iScience, 2024):
Entries after “also recorded” stand apart in the source; their conditions may differ. Read-outs that look alike come from different tables or passages of the source.

Assays:
HTR2A = HTR2A (Homo sapiens, UniProt P28223); assay: ERBBprofiler barcoded split TEV assay, HTR2A
ERBB4 EGR1p = assay: ERBBprofiler barcoded EGR1p pathway sensor, ERBB4 co-transfected; conditions: Rattus norvegicus, PC-12, 6 h, read-out: ERBB4 EGR1p IC50
ERBB4 [1] = biological target: ERBB4 (Homo sapiens, UniProt Q15303); assay: ERBBprofiler barcoded split TEV assay, ERBB4; conditions: ERBB4 UAS (split TEV) IC50, PC12 cells; constant EGF 30 ng/mL, EGFld 10 ng/mL, serotonin 1 μM; 6 h; barcode readout; relative IC50
Sequence of ERBB4 (Homo sapiens, UniProt Q15303) (Q15303 26-1308): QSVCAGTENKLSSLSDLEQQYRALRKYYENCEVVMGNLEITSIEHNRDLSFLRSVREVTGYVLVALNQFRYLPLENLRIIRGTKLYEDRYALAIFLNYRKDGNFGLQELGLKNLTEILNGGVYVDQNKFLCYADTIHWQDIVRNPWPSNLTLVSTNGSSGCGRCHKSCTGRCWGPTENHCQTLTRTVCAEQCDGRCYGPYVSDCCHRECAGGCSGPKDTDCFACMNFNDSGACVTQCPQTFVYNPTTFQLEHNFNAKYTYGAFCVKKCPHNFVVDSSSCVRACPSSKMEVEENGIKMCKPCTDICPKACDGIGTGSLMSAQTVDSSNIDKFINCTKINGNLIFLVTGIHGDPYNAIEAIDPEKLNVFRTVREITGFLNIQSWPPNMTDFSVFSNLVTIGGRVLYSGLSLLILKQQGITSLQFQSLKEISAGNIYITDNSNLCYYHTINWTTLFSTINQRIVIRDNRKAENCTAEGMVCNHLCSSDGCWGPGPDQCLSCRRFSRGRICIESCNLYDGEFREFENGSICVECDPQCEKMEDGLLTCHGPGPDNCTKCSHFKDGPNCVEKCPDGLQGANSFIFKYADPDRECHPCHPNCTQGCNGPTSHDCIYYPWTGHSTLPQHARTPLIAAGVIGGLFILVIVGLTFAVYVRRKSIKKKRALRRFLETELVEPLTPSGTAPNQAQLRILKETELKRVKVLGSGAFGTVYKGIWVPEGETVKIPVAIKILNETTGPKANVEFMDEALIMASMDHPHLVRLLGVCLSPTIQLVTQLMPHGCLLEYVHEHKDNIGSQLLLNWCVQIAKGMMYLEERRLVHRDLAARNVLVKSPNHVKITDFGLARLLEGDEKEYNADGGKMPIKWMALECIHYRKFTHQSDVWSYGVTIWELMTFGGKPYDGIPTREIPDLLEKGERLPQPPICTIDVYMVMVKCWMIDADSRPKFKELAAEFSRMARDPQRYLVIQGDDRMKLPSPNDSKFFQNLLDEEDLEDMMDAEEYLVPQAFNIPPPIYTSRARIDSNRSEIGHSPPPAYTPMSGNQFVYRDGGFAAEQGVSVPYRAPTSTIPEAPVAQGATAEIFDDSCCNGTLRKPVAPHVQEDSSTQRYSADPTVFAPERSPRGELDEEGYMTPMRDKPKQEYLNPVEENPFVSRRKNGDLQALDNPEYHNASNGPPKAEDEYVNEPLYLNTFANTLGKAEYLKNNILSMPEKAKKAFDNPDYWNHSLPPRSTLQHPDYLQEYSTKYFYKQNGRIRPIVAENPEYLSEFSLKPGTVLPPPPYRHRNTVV

ERBB4 [2] = tested on: ERBB4; design: method as in Hasako et al., 2018; conditions: biochemical kinase activity assay by Carna Biosciences; ref Hasako et al., 2018; read-out: IC50_Literature, ERBB4; cited from earlier work
EGFR NFAT = assay: ERBBprofiler barcoded NFAT pathway sensor, EGFR co-transfected; format: cell-based, Rattus norvegicus
ERBB2/3 EGR1p = assay: ERBBprofiler barcoded EGR1p pathway sensor, ERBB2/3 co-transfected; conditions: Rattus norvegicus, PC-12, 6 h, read-out: ERBB2/3 EGR1p IC50
[3] = tested on: ERBB receptors, HTR2A, and downstream signaling pathways; assay: ERBBprofiler multiplexed barcoded assay, overall statements across all receptor batches and sensors; conditions: for CRE sensor response at high compound concentration (barcoded): 10 μM compound, PC12 cells, stimulation mix
EGFR [4] = biological target: EGFR (Homo sapiens, UniProt P00533); assay: ERBBprofiler barcoded split TEV assay, EGFR
ERBB2 = tested on: ERBB2; design: method as in Hasako et al., 2018; conditions: biochemical kinase activity assay by Carna Biosciences; ref Hasako et al., 2018; read-out: IC50_Literature, ERBB2; cited from earlier work
HTR2A NFAT = assay: ERBBprofiler barcoded NFAT pathway sensor, HTR2A co-transfected; conditions: Rattus norvegicus, PC-12, 6 h, read-out: HTR2A NFAT IC50
ERBB2/3 NFAT = assay: ERBBprofiler barcoded NFAT pathway sensor, ERBB2/3 co-transfected; format: cell-based, Rattus norvegicus; conditions: PC12 cells; constant EGF 30 ng/mL, EGFld 10 ng/mL, serotonin 1 μM; 6 h; barcode readout; relative IC50
ERBB4 NFAT = assay: ERBBprofiler barcoded NFAT pathway sensor, ERBB4 co-transfected; format: cell-based, Rattus norvegicus; conditions: PC12 cells; constant EGF 30 ng/mL, EGFld 10 ng/mL, serotonin 1 μM; 6 h; barcode readout; relative IC50
ERBB2/3 = ERBB2/3 (Homo sapiens, UniProt P04626+P21860); assay: ERBBprofiler barcoded split TEV assay, ERBB2/3
Sequence of ERBB2/3 (P04626 23-1255): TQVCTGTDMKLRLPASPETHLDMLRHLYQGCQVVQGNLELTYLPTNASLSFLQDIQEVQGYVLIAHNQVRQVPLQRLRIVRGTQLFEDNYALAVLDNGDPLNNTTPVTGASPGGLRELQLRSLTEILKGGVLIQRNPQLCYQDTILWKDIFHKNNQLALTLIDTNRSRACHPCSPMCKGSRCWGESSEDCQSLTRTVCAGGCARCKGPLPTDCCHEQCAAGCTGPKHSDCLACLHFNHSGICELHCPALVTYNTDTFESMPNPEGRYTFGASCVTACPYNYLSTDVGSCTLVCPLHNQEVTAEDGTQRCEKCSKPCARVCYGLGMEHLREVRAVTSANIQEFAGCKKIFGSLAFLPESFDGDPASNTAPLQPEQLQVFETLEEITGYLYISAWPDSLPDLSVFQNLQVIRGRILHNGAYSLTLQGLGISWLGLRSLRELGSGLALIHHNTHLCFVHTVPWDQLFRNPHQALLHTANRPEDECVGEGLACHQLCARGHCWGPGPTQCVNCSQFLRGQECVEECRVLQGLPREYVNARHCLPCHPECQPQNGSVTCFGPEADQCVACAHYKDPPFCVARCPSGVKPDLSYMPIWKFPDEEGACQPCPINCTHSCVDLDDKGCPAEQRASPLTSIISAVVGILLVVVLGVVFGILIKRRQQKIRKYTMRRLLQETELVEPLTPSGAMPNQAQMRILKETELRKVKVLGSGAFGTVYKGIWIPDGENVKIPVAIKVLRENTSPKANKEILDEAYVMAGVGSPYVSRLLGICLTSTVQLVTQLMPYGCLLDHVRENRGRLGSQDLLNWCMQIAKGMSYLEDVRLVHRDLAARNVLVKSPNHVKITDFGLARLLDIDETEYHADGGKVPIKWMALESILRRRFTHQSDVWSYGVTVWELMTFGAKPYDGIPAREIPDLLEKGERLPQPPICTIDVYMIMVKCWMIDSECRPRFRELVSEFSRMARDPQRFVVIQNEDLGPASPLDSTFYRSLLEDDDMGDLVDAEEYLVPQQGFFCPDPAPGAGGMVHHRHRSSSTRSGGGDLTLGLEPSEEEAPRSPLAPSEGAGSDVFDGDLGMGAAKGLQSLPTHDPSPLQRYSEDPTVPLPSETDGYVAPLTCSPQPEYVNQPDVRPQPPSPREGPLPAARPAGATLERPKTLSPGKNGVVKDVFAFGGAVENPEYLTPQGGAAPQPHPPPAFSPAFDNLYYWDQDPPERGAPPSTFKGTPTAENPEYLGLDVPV
Sequence of ERBB2/3 (P21860 20-1342): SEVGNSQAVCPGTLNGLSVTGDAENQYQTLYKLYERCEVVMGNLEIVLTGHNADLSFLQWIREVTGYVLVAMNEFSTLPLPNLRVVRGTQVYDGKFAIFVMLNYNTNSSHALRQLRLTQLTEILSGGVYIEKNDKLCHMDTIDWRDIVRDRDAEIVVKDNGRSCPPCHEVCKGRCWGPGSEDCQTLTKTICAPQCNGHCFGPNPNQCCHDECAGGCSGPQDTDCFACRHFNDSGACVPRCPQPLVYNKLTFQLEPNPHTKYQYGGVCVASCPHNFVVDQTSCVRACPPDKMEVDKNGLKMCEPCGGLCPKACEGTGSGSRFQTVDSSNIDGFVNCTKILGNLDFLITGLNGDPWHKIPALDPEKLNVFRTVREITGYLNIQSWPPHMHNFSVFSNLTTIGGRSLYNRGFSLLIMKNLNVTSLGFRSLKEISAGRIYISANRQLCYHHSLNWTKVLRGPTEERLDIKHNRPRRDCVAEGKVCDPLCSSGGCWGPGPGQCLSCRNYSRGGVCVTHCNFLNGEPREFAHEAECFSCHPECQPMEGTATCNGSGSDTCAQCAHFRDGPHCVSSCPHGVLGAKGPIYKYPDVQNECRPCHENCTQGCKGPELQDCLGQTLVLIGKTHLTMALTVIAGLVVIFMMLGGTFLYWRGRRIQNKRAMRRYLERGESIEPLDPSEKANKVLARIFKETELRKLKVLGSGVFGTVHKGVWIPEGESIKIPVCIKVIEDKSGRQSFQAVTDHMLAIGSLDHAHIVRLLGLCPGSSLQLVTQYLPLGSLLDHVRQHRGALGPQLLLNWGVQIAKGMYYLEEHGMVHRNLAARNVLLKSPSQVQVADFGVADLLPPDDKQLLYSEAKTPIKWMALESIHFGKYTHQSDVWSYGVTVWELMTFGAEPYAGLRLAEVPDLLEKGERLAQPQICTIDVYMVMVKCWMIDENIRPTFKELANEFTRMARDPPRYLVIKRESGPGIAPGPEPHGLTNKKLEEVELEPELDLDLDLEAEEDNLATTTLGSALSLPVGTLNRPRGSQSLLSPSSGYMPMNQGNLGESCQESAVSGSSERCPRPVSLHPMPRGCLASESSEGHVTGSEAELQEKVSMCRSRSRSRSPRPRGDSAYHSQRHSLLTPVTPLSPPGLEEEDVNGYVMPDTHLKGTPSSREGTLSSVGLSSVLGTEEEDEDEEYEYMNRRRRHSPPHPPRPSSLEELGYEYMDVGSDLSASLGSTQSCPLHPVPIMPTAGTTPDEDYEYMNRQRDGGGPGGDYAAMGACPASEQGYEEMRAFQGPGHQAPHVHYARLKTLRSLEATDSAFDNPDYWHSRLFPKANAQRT

HTR2A EGR1p = assay: ERBBprofiler barcoded EGR1p pathway sensor, HTR2A co-transfected; conditions: Rattus norvegicus, PC-12, 6 h, read-out: HTR2A EGR1p IC50
EGFR [5] = tested on: EGFR; design: method as in Hasako et al., 2018; conditions: phospho-WB in NIH/3T3 cell lines; ref Hasako et al., 2018; read-out: IC50_Literature, EGFR; cited from earlier work
EGFR EGR1p = assay: ERBBprofiler barcoded EGR1p pathway sensor, EGFR co-transfected; conditions: Rattus norvegicus, PC-12, 6 h, read-out: EGFR EGR1p IC50
NCI-H1975 cells = tested on: NCI-H1975 cells; design: method as in Dong et al., 2019; conditions: growth of NCI-H1975 cells; ref Dong et al., 2019; read-out: IC50_Literature, EGFR; cited from earlier work
[6] = tested on: Calu-3 and NCI-H1781 cells; design: method as in Dong et al., 2019; conditions: growth of Calu-3 and NCI-H1781 cells; ref Dong et al., 2019; read-out: IC50_Literature, ERBB2; cited from earlier work
calcium = assay: Fluo-4 AM calcium assay in PC12 cells; format: cell-based, Rattus norvegicus; conditions: stimulation mix
Method: On DIV2, cells were pre-equilibrated in 10 μM Fluo-4 a.m. (Thermo Fisher Scientific, F14201) away from light for 1 h at 37°C. Next, cells were incubated in the indicator-free starvation medium to allow de-esterification for 20 min away from light at 37°C. Background fluorescence was then measured using the BMG POLARstar Optima Microplate Reader prior to adding the treatments and continuously measuring the fluorescence for the next 30 min. Fluorescence was measured using the bottom optics.

CRE sensor = CRE sensor only luciferase assay in PC12 cells; format: cell-based, Rattus norvegicus
Method: 50,000 PC12 cells were seeded per 96-well onto poly-L-lysin (PLL)-coated plates and transfected the following day (day in vitro 1, DIV1) with assay plasmids using Lipofectamine 3000 (Thermo Fisher Scientific). […] For pathway assays, the receptor plasmids (15 ng/well) and pathway reporter plasmids (15 ng/well) pEGR1p-luc2 for monitoring MAPK signaling, pCRE-CMVmin-luc2 for monitoring cAMP/Ca^2+ signaling, or p6xNFAT-CMVmin-luc2 for Ca^2+ signaling were used. Transient transfections were conducted according to the manufacturer’s instructions. On DIV2, cells were starved in medium containing 1% FCS for 16 h. […] In the case of antagonist assays, compounds were added at increasing doses together with the stimulus. Cells were lysed in 1x passive lysis buffer (Promega) and subjected to a firefly luciferase assay using a self-made substrate for firefly luciferase.[100] Luciferase activity was analyzed in a Mithras LB 940 Multimode Microplate Reader (Berthold Technologies). All assays were run in 96-well plates using six replicates per condition.

cAMP = assay: GloSensor cAMP assay in PC12 cells; format: cell-based, Rattus norvegicus
Method: The GloSensor cAMP assay was conducted with the same parameters (50,000 PC12 cells per 96-well) as described above for the firefly luciferase assay, with however, three differences. Specifically, (1) 30 ng/well of the pGloSensor-22F plasmid (Promega, E2301) was used for transfection, and (2) on DIV3, cells were equilibrated in assay medium containing a 2% v/v dilution of D-luciferin (Synchem, bc219) for 2 h at 37°C before (3) the treatment of compounds for 15 min and lysis in 1x passive lysis buffer (Promega) and luciferase activity measurement.

ERBB4 [7] = tested on: ERBB4; design: method as in Nam et al., 2011; conditions: tyrosine kinase assay kit (Panvera); ref Nam et al., 2011; read-out: IC50_Literature, ERBB4; cited from earlier work

Sequence of HTR2A (P28223 whole entry): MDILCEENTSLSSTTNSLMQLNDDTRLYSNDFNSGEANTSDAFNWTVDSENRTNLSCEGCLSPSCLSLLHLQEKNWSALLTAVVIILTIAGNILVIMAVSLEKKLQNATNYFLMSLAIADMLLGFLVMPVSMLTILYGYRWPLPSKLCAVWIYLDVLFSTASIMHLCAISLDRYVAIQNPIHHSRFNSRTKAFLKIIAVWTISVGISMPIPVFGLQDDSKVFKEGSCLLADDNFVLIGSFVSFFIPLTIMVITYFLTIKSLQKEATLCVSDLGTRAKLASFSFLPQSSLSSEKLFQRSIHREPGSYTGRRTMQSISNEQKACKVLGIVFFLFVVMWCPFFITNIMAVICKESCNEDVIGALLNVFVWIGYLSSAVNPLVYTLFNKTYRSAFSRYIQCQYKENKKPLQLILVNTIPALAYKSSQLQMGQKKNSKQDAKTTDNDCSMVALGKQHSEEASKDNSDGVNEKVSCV

SMILES | IC50 (HTR2A) [nM] | IC50 (ERBB4 EGR1p) [nM] | IC50 (ERBB4 [1]) [nM] | IC50 (ERBB2/3 EGR1p) [nM] | CRE sensor response at high compound concentration (barcoded) [3] | IC50 (HTR2A NFAT) [nM] | ERBB4 NFAT IC50 (ERBB4 NFAT) | IC50 (ERBB2/3) [nM] | IC50 (HTR2A EGR1p) [nM] | IC50 (EGFR EGR1p) [nM] | further results
C=CC(=O)N[C@H]1C=C(C)c2c(-c3cnc4ccccc4c3)c3c(N)ncnc3n2C1 [TAS6417, TAS6417 (Zipalertinib)] | 444 | 55 | 91 | 267 | upregulated CRE sensor response | 848 | no effect (EGFR, ERBB2/3, ERBB4) - 0.848 µM (HTR2A, small effect) | 206 | 193 | 95 | IC50 (ERBB4 [2]): 4 nM; EGFR NFAT IC50 (EGFR NFAT): no effect (EGFR, ERBB2/3, ERBB4) - 0.848 µM (HTR2A, small effect); IC50_ERBBpro, cAMP/Ca2+ (CRE sensor) ([3]; ERBBprofiler, no receptor named in the cell): no effect; IC50 (EGFR [4]): 92 nM; IC50 (ERBB2): 390 nM; ERBB2/3 NFAT IC50 (ERBB2/3 NFAT): no effect (EGFR, ERBB2/3, ERBB4) - 0.848 µM (HTR2A, small effect); IC50 (EGFR [5]): 368 nM
C=CC(=O)N1CCC(Oc2cc3c(Nc4ccc(Cl)c(Cl)c4F)ncnc3cc2OC)CC1 [Poziotinib, Poziotinib (HM781-36B)] | 4.56 | 0.87 | 3.11 | 0.79 | upregulation of the CRE sensor; also recorded: upregulated CRE sensor response | 16 | no effect (EGFR, ERBB2/3, ERBB4) - 0.016 µM (HTR2A) | 2.63 | 1.14 | 0.89 | IC50 (NCI-H1975 cells): 1.7 to 8.78 nM; IC50 [6]: 2.5 to 6.2 nM; effect on calcium levels (Fluo-4 AM) (calcium): but not calcium levels; EGFR NFAT IC50 (EGFR NFAT; PC12 cells, constant EGF 30 ng/mL, EGFld 10 ng/mL, serotonin 1 μM, 6 h, barcode readout, relative IC50): no effect (EGFR, ERBB2/3, ERBB4) - 0.016 µM (HTR2A); effect on CRE sensor activity (luciferase), in words (CRE sensor; PC12 cells, CRE sensor only, stimulation mix): CRE sensor activation at high compound concentrations; EC50 (CRE sensor; Rattus norvegicus, PC-12): 1640 nM; effect on cAMP levels (GloSensor) (cAMP): increase of cAMP; EC50 (cAMP; Rattus norvegicus, PC-12, 0.25 h, constant stimulation mix, 15 min, cAMP increase): 2910 nM; compound concentration resulting in elevated cAMP (GloSensor) (cAMP; stimulation mix): ≥ 3 µM; IC50 (ERBB4 [7]): 23.5 nM
